Assay: Solubility study: maximum solubility of terpenes in solvent by stepwise addition and visual inspection
Assay type: physicochemical
Details: ambient temperature (18 to 22 degrees Celsius); for Max. solubility of terpenes in solvent (% w/w) BA: solvent benzyl alcohol (BA); for Max. solubility of terpenes in solvent (% w/w) PG: solvent propylene glycol (PG); for Max. solubility of terpenes in solvent (% w/w) PG + 8% BA: solvent propylene glycol with 8%w/w benzyl alcohol
Description: A solubility study was carried out to assess the solubility of a range of terpenes in propylene glycol (PG) and benzyl alcohol (BA), and a mixture of propylene glycol (PG) and 8%w/w benzyl alcohol (BA) (materials were sourced from Sigma).
In particular, the maximum solubility at ambient temperature was assessed following the stepwise addition of each terpene to the relevant solvent or solvent mixture. Each terpene was added in aliquots to a solvent (PG, BA or a combination of PG and BA, where the BA was present in an amount of 8%w/w of the PG) and stirred at ambient temperature (18 to 22 degrees Celsius) until the terpene had fully solubilized. The next aliquot of terpene was then added.

SMILES: C=CC(C)(CCC=C(C)C)OC(C)=O (stereo not drawn) [Linalyl acetate]
- Max. solubility of terpenes in solvent (% w/w) BA: 34.5 % w/w
- Max. solubility of terpenes in solvent (% w/w) PG: 1.4 % w/w
- Max. solubility of terpenes in solvent (% w/w) PG + 8% BA: 6.0 % w/w

SMILES: C=C[C@](C)(O)CCC=C(C)C [R- linalool]
- Max. solubility of terpenes in solvent (% w/w) BA: 73.2 % w/w
- Max. solubility of terpenes in solvent (% w/w) PG: 72.6 % w/w
- Max. solubility of terpenes in solvent (% w/w) PG + 8% BA: 74.3 % w/w

SMILES: C=C1CC/C=C(\C)CC[C@@H]2[C@@H]1CC2(C)C [beta-caryophyllene]
- Max. solubility of terpenes in solvent (% w/w) BA: 11.0 % w/w
- Max. solubility of terpenes in solvent (% w/w) PG: 1.1 % w/w
- Max. solubility of terpenes in solvent (% w/w) PG + 8% BA: 2.4 % w/w

SMILES: CC(C)=CCCC(C)CCO (stereo not drawn) [beta-citronellol]
- Max. solubility of terpenes in solvent (% w/w) BA: 71.2 % w/w
- Max. solubility of terpenes in solvent (% w/w) PG: 47.0 % w/w
- Max. solubility of terpenes in solvent (% w/w) PG + 8% BA: 70.3 % w/w
